The values below come from ChEMBL document CHEMBL4680129, “Hit-to-lead optimization of novel 2-alkylaminomethylquinoline derivatives as anti-chagas agents” (Eur J Med Chem, 2020).

In general, IC50 refers to the concentration at which inhibition is half-maximal. In general, CC50 refers to the concentration at which the toxic effect on the cells reaches its halfway point.

Series [1] concerns Trypanosoma cruzi. The series is described as follows: Anti-chagasic activity against Trypanosoma cruzi trypomastigotes infected in C3H mouse assessed as active behaviour at 10 mg/kg, po treated 10 days post infection measured on day 19. The format is functional, organism-based. Particulars: time 9.0 day.
Series [2] has as its system Trypanosoma cruzi. In words: Antitrypanosomal activity against Trypanosoma cruzi epimastigotes measured after 72 hrs by Neubauer hemocytometer counting method. It counts as functional, organism-based.
The test system of series [3] is Trypanosoma cruzi. In words: Anti-chagasic activity against Trypanosoma cruzi trypomastigotes infected in C3H mouse assessed as physically healthy with shiny appearance at 10 mg/kg, po treated 10 days post infection measured on day 19. The format is functional, organism-based. The following applies: time 9.0 day.
In series [4] the test system is Trypanosoma cruzi. The series is described as follows: Anti-chagasic activity against Trypanosoma cruzi trypomastigotes infected in C3H mouse assessed as reduction in parasitemia at 50 mg/kg, po treated 10 days post infection for 7 consecutive days by Neubauer chamber counting method relative to control. The format is functional. The following applies: time 7.0 day.

The nature of series [5]: Selectivity index, ratio of CC50 African green monkey Vero cells to IC50 for Trypanosoma cruzi amastigotes. Particulars: read-out: Selectivity Index. The format is toxicity.
The test system of series [6] is Trypanosoma cruzi. In words: Anti-chagasic activity against Trypanosoma cruzi trypomastigotes infected in C3H mouse assessed as well-groomed fur and alert at 10 mg/kg, po treated 10 days post infection measured on day 19. The format is functional, organism-based. Particulars: time 9.0 day.
In series [7] the test system is Trypanosoma cruzi. The series is described as follows: Antitrypanosomal activity against bloodstream Trypanosoma cruzi trypomastigotes measured after 24 hrs by Neubauer chamber method. The format is functional, organism-based.
Series [8] has as its system Trypanosoma cruzi. The series is described as follows: Anti-chagasic activity against Trypanosoma cruzi trypomastigotes infected in C3H mouse assessed as reduction in parasitemia at 10 mg/kg, po treated 10 days post infection for 7 consecutive days by Neubauer chamber counting method relative to control. It counts as functional. More on the design: scale not given: the % may be the effect or the level left. Particulars: time 7 day.

Series [9] can be described thus: Toxicity in C3H mouse infected with Trypanosoma cruzi trypomastigotes assessed as mortality at 10 to 50 mg/kg, po treated 10 days post infection for 7 consecutive days. It counts as organism-based. The following applies: in vivo, 168 h, dose 10-50 mg/kg, time 7 day.
A short description of series [10]: Cytotoxicity against African green monkey Vero cells assessed as reduction in cell viability measured after 24 hrs by MTT assay. It counts as cell-based. Particulars: chlorocebus sabaeus.
A short description of series [11]: Selectivity index, ratio of CC50 African green monkey Vero cells to IC50 for Trypanosoma cruzi epimastigotes. It counts as toxicity. Particulars: read-out: Selectivity Index.
Series [12] relates to Trypanosoma cruzi. In words: Anti-chagasic activity against Trypanosoma cruzi trypomastigotes infected in C3H mouse assessed as increase in body weight at 10 mg/kg, po treated 10 days post infection measured on day 19 (reference value: -1.8%). The format is functional. Particulars: time 9.0 day.
Series [13] is described as follows: Selectivity index, ratio of CC50 African green monkey Vero cells to IC50 for Trypanosoma cruzi trypomastigotes. The following applies: read-out: Selectivity Index. The format is toxicity.
Series [14] concerns Trypanosoma cruzi. The series is described as follows: Antitrypanosomal activity against […] expressing beta-galactosidase infected in african green monkey VERO cells incubated for 5 days measured by microplate reader assay. It counts as functional, organism-based. Particulars: 120 h.

The source made the active and inactive calls. No cut-off for these calls is given here.

With `O=C(Cn1ccnc1[N+](=O)[O-])NCc1ccccc1` [BENZNIDAZOLE], the outcome in series [1], in series [3] and in [6] was Active. In addition, the results for the IC50 in [2], in series [7] and in series [14] were 5.8 µM, 34.1 µM and 3.6 µM, respectively. Also, the result in series [4] and in [12] was inactive. In addition, the selectivity ratio in [5] amounted to 196; in [11], 122; in series [13] it was 20.7. Further, the Activity is listed as 58.9% in series [8] and “Non-Toxic” in series [9]. Moreover, the CC50 at 24 h in series [10] is 706 µM.
Regarding `O=C(O)c1c(CN2CCN(CCO)CC2)nc2ccc(Cl)cc2c1-c1ccccc1`, the IC50 was found to be 4.2 µM in series [2] and 56.1 µM in series [7]. Further, in series [10], the CC50 at 24 h is 36 µM. Moreover, the selectivity ratio in [11] was 8.6; in series [13], 0.6.
Turning to `O=C(O)c1c(CNCCN2CCOCC2)nc2ccc(Cl)cc2c1-c1ccccc1`, the half-maximal inhibitory concentration (IC50) in [2] amounted to 11.2 µM; in series [7], 11.9 µM. The CC50 at 24 h in series [10] was determined as 221 µM. For the same compound, the selectivity ratio in series [11] amounted to 19.7; in series [13], 18.5.
